Series [1] can be described thus: Geller test (foot-shock induced conflict, lever pressing for food). It is filed as in vivo, Ratten. The note with it: for anxiolytische Wirkung im Geller-Test: overall assessment. The text has this:
Das charakteristische anxiolytische Profil von (+)-1-Isopropylamino-3-[o-(pyrrol-1-yl)-phenoxy]-2-propanol ergibt sich beispielsweise aus den Ergebnissen des Geller-Testes, [J. Geller. Psychopharmacologia, 3, S. 374 ff. […] Bei diesem Test werden die Füsse der Verscuchstiere beim Bedienen eines Hebels zur Nahrungsfreigabe periodisch Elektroschocks ausgesetzt. Normalerweise wird nur bei Verabreichung von hohen Dosen an Anxiolytika die Reaktion auf die Bestrafung unterdrückt. Bei einer Gruppe von Ratten, die eine Dosis ab 3 mg/kg p.o. von (+)-1-lsopropylamino-3-[o-(pyrrol-1-yl)-phenoxy]-2-propanol erhalten haben, reagieren bereits ab etwa 80 % der Versuchstiere mit einem markanten Anstieg der Hebelbedienungshäufigkeit während der Schockphase.
Bei einer Gruppe von 29 Ratten, die eine Dosis von 20 mg/kg p.o. von 1-lsopropylamino-3-[o-(pyrrol-1-yl)-phenoxy]-2-propanol erhalten haben, reagieren bereits 50 % der Versuchstiere mit einem markanten Anstieg der Hebelbedienungshäufigkeit während der Schockphase, wobei der Anstieg bei einzelnen Tieren 300 % betrug.

A short description of series [2]: Social conflict test after Jaekel (rank hierarchy). The series is classed as in vivo, Rhesusaffen. From the text: Insbesondere konnten signifikante anxiolytische Effekte bei Verabreichung des Wirkstoffs in sozialen Konfliktsituationen bei Rhesusaffen festgestellt werden. Die experimentalle Grundlage für diesen Sozialkonflikt-Test analog J. Jaekel in Biologische Psychiatrie (Forschungsergebnisse), W. Kemp (Hrsg.), Springer Verlag, Heidelberg, 1986, ist die hierarchische Rangordnung bei Rhesusaffen. Der relative Rangstatus eines Tieres ist der bestimmende Faktor für interindividuelle Kommunikation, z.B. für Aggression oder wechselseitiges soziales Putzen. Normalerweise werden Tiere mit geringem Rangstatus von höher gestellten Grupenmitgliedern unterdrückt. Diese unterdrückten Tiere ziehen sich in eine soziale Isolierung zurück und vermeiden ängstlich jeden Sozialkontakt. Wiederholte Wirkstoffgaben in Dosen von 0,2 mg/kg p.o. bei Gruppen von 5 bzw. […] Diese Effekte werden als deutliche Anxiolyse angesehen.
Insbesondere konnten signifikante anxiolytische Effekte bei Verabreichung des Wirkstoffs in sozialen Konfliktsituationen bei Rhesusaffen im oben beschriebenen Sozialkonflikt-Test nach Jaekel festgestellt werden. […] Ebenso nahmen sie aktiv Kontakt auf und wurden zu Partnern beim Pflegen, obwohl sie vorher niemals Pflegepartner waren. Diese Effekte wurden sowohl bei Gruppen mit hohem Niveau an Sozialkontakten als auch bei Gruppen mit wenig Pflegepartnerschaften beobachtet. […] Wie zu erwarten wurde dieses ausgeprägte anxiolytische Profil bei den Standard-Beta-Rezeptoren-Blockern Oxprenolol nicht und bei Propanolol in weitaus geringerem Masse erst bei Beta-Rezeptoren blockierenden Dosierungen festgestellt. Dagegen weist das Racemat diesen Effekt in nicht ß-blockierend wirkenden Dosierungen auf.

Series [3] is described as follows: Delayed-Matching-to-Sample test after Harlow, double-blind against placebo. It is filed as in vivo, Rhesusaffen. The text has this:
In Testmodellen an Rhesusaffen sowie an Ratten konnten weiterhin eine zusätzliche nootrope und antidepressive Wirkungskomponente festgestellt werden. […] F. Harlow et al., J. Comp. Physiol. Psychol. […] Dieser bedeutet diejenige Zeitverzögerung in Sekunden, nach der ein Affe einen Diskriminationserfolg von < 75 % hat. Weiterhin konnten die Vorzögerungszeiten für den Defizitbereich um durchschnittlich 20 Sekunden erhöht werden. Neben diesen nootropen Effekten konnten In diesem Test auch antidepressive Eigenschaften beobachtet werden. […] Die nootrope bzw. antidepressive Wirkungskomponente konnten ebenfalls bei Untersuchungen mit Ratten manifestiert werden. So wurden in einem komplizierten Tieflabyrinth analog dem Modell von J.B. Watson, Animal Education, Contrib. Psychol. Lab. Univ.

Series [4] is described as follows: Complicated deep maze after Watson. It is filed as in vivo, Ratten. The text has this:
In Testmodellen an Rhesusaffen sowie an Ratten konnten weiterhin eine zusätzliche nootrope und antidepressive Wirkungskomponente festgestellt werden. So bewirkte (+)-1-isopropylamino-3-[o-(pyrrol-1-yl)-phenoxy]-2-propanol in einer Doppelblindstudie bei Rhesusaffen gegen Placebo im "Delayed-Matchingto-Sample-Test" (Zeit-verzögerte-Wahl-nach-Muster) gemäss der Methodik von H. F. Harlow et al., J. Comp. Physiol. Psychol. […] Dieser bedeutet diejenige Zeitverzögerung in Sekunden, nach der ein Affe einen Diskriminationserfolg von < 75 % hat. Weiterhin konnten die Vorzögerungszeiten für den Defizitbereich um durchschnittlich 20 Sekunden erhöht werden. Neben diesen nootropen Effekten konnten In diesem Test auch antidepressive Eigenschaften beobachtet werden. […] Die nootrope bzw. antidepressive Wirkungskomponente konnten ebenfalls bei Untersuchungen mit Ratten manifestiert werden. So wurden in einem komplizierten Tieflabyrinth analog dem Modell von J.B. Watson, Animal Education, Contrib. Psychol. Lab. Univ.

The test system of series [5] is stratialer Dopamin-Rezeptoren. The experiment in a line: In vivo 3H-spiperone binding screening model after Bischoff. Details: species or system Ratten. The note with it: rats. The text has this: Ferner bewirkt (+)-1-Isopropylamino-3-[o-(pyrrol-1-yl)-phenoxy]-2-propanol an Ratten Im Screening-Modell nach S. Bischoff et al., Europ.
Series [6] is described as follows: Three-centre double-blind study in inpatients. The series is classed as in vivo, Menschen. From the text: Ueberraschend ist also die Tatsache, dass das anxiolytische Profil dieses Wirkstoffs auch bei nicht-betarezeptorenblockierend wirkenden Dosierungen sowohl im Tiermodell als auch am Menschen überaus ausgeprägt ist. Letzteres bestätigen Untersuchungen an stationären Patienten.
Entsprechendes ist bei der Verwendung des (+)-Enantiomeren zu erwarten.

Series [7] in a line: Inhibition of hyperactivity of rats kept in isolation (locomotor and exploratory behaviour, after Weinstock). It is filed as in vivo, Ratten. The note with it: isolated rats. How it is done: Das charakterische anxiolytische Profil von 1-Isopropylamino-3-[o-(pyrrol-1-yl)-phenoxyj-2-propanol ergibt sich beispielsweise aus der Hemmung der Hyperaktivität von Ratten, die in Isolation gehalten werden, gemessen an ihrem lokomotorischen und exploratorischen Verhalten, wobei maximale Effekte bei einer Dosierung von 0,01-0,1 mg/kg p.o. erzielt werden [analog der Methodik von R. Weinstock et al., Psychopharmacologia 30, 241ff. (1973). Die Hyperaktivität von isoliert gehaltenen Ratten konnte dagegen im Falle des Propranolols erste bei einer Dosis von 0,3 mg/kg p.o. maximal gehemmt werden.

Series [8] has as its system präsynaptischen Serotonin-1 B-Rezeptors (5-HTIB). The experiment in a line: Antagonism at the presynaptic serotonin 1B receptor. The settings on record: for Selektivität (5-HT1B gegenüber 5-HT1A): compared with the racemate.
The mark [9] stands for this setting: repeated doses of 0,2 mg/kg p.o., groups of 5 or 7 monkeys.
The mark [10] stands for this setting: repeated doses of 0,1-0,3 mg/kg p.o., groups of 7 monkeys.

For `CC(C)NCC(O)COc1ccccc1-n1cccc1` (single isomer, unassigned; (+)) [(+)-1-Isopropylamino-3-[o-(pyrrol-1-yl)-phenoxy]-2-propanol], the “Versuchstiere mit einem markanten Anstieg der Hebelbedienungshäufigkeit während der Schockphase” value in series [1] (rats, dose from 3 mg/kg p.o.) is on record as around 80%. Moreover, in series [1] (rats), the “anxiolytische Wirkung im Geller-Test” value is on record as “starkes Anxiolytikum”. Further, in series [2] (setting [9]), the “Sozialkontakte der rangniedrigsten Affen” value was “nahmen sie aktiv soziale Kontakte auf” and the “ängstliches Verhaltensmuster der Affen, die in der Rangordnung am niedrigsten eingeordnet sind” value is given as “signifikanten Reduktion”. In addition, the “Erfolgsrate im Defizitbereich” value in series [3] (1 mg/kg p.o., against placebo, deficit range = delay after which discrimination success is < 75 %) is recorded as “signifikant erhöhte Erfolgsrate”. The “Motivation und Antrieb (antidepressive Eigenschaften)” value in series [3] (rhesus monkeys) is “deutliche Motivations-und Antriebssteigerungen”. The “Erhöhung der Vorzögerungszeiten für den Defizitbereich” value in series [3] (rhesus monkeys, average increase) was 20 Sekunden. Moreover, the “Orientierungsleistungen (Fehlerquote; nootrope Wirkung)” value in series [4] (rats) was “deutliche Verbesserung der Orientierungsleistungen”. Besides, in series [4] (rats, compared with placebo animals), the “Laufzeiten vom Start zum belohnten Ziel” value is on record as “signifikant verkürzten Laufzeiten”. In addition, in series [5], the “^3H-Splperon-Bindung stratialer Dopamin-Rezeptoren” value is given as “dosisabhängig Erhöhungen”. The “cardiovaskuläre Effekte (ß-Blockade)” value in series [6] (expected for the (+)-enantiomer, not tested) is given as “Entsprechendes”.
Turning to `CC(C)NCC(O)COc1ccccc1-n1cccc1` (racemic) [1-Isopropylamino-3-[o-(pyrrol-1-yl)-phenoxy]-2-propanol], the “Versuchstiere mit einem markanten Anstieg der Hebelbedienungshäufigkeit während der Schockphase” value in series [1] (group of 29 rats, 20 mg/kg p.o.) worked out at 50%. Also, the “Anstieg der Hebelbedienungshäufigkeit bei einzelnen Tieren” value in series [1] (rats, 20 mg/kg p.o., shock phase) was 300%. In series [1] (rats), the “anxiolytische Wirkung im Geller-Test” value is recorded as “starkes Anxiolytikum”. In series [2] (setting [10]), the “Sozialkontakte der rangniedrigsten Affen” value is recorded as “Zunahme der Sozialkontakte” and the “ängstliches Verhaltensmuster der Affen, die in der Rangordnung am niedrigsten eingeordnet sind” value is listed as “signifikanten Reduktion des ängstlichen Verhaltensmuster”. In addition, in series [3] (racemate, at the doses used), the “nootrope und antidepressive Eigenschaften” value is “keine aussagefähigen Beobachtungen”. For the same molecule, the “nootrope und antidepressive Eigenschaften” value in series [4] (racemate, at the doses used) is given as “keine aussagefähigen Beobachtungen”. In addition, the “Dosierung, bei der maximale Effekte (Hemmung der Hyperaktivität) erzielt werden” value in series [7] is 0,01-0,1 mg/kg p.o. Further, the “Antagonismus am präsynaptischen Serotonin-1 B-Rezeptor” value in series [8] is “potenter selektiver Antagonist”. Further, the “cardiovaskuläre Effekte (ß-Blockade)” value in series [6] (humans, low daily doses such as 2 mg and 4 mg p.o.) is reported as “keine cardiovaskulären Effekte”. Further, the “anxiolytische Effekte” value in series [6] (more than 100 inpatients, daily dose 2 mg p.o. compared with daily dose 4 mg p.o.) is “signifikante, mindestens ebenso potente anxiolytische Effekte”.
Regarding `CC(C)NCC(O)COc1cccc2ccccc12` (stereo not shown) [Propranolol, reference compound], in series [1] (rats, 20 mg/kg p.o.), the “Verhaltensänderung im Fussschocktest” value is reported as “keiner signifikanten Verhaltensänderung”. Also, the “Sozialkontakte der Rhesusaffen mit niedrigem Rangstatus” value in series [2] (0,5-10,0 mg/kg p.o.) is reported as “relativ wenig beeinflusst”. Besides, in series [7], the “Dosierung, bei der maximale Effekte (Hemmung der Hyperaktivität) erzielt werden” value is 0,3 mg/kg p.o. For the same molecule, the “Selektivität (5-HT1B gegenüber 5-HT1A)” value in series [8] is given as “weniger selektiv”.
On to `C=CCOc1ccccc1OCC(O)CNC(C)C` (stereo not shown) [Oxprenolol, reference compound], for which the “Sozialkontakte von Affen mit geringer Rangordnung” value in series [2] (0,3-3,0 mg/kg p.o.) is “keine Steigerung der Sozialkontakte”. For the same molecule, the “Selektivität (5-HT1B gegenüber 5-HT1A)” value in series [8] was “weniger selektiv”.

(Values after EP0265388A1, “Pyrrole derivatives, therapeutic compositions containing them and their use” (CIBA-GEIGY AG, priority 1986, dated 1988).)
